Literature values in patent US9636287B2, “Primecoat compositions for proteinaceous substrates and methods of priming proteinaceous substrates therewith” (Mad River Science, priority 2012, dated 2017).

System: EpiDerm Skin Model (normal, human-derived epidermal keratinocytes, NHEK)
Details: MatTek Corporation general guideline groupings, example materials

Row | Compound | ET-50 [h] | Expected In vivo Irritancy | ET-50 (hrs)
1 | Triton X-100 [1% Triton X-100] | 4 to 12 | Moderate to Mild | –
2 | CCCCCCCCCCCCOS(=O)(=O)[O-].[Na+] [1% Sodium Dodecyl Sulfate, Sodium Dodecyl Sulfate] | – | Moderate | 0.5-4^ hrs
3 | O=[N+]([O-])O [Conc. Nitric Acid, Nitric Acid] | <0.5 | Severe, probably corrosive | –
